Measured values: paper PMC12715762, “Discovery of VU6052254: A Novel, Potent M1 Positive Allosteric Modulator” (ACS Chemical Neuroscience, 2025)

Columns and labels:
[1] = tested on: Purinergic P2Y, Non-Selective; test: Eurofins radioligand binding; settings: Rat
[2] = satellite IP PK study, brain exposure; type: in vivo; settings: C57Bl6 mice, 30% captisol
Description: These effects were absent when performed in M1 KO mice, confirming that these AEs are in fact M1-mediated. […] Total brain drug levels correlate better with PD efficacy ,− , versus free drug levels in brain, as the arbitrarily selected EC20 value for the in vitro PAM EC50 potency determination likely underestimates endogenous ACh tone. Thus, there is a significant therapeutic index for PAM 7 from this assay, and robust target-mediated convulsions were not present. To assess peripheral cholinergic toxicity, a modified Irwin neurological battery was performed to score autonomic or somatosensory side effects (Figure ). […] Still, if the dose and exposure required for efficacy afforded the appropriate therapeutic window, then PAM 7 could still advance.

Calcium Channel N-Type = Calcium Channel N-Type (Rattus norvegicus, UniProt Q02294); test: Eurofins radioligand binding
[3] = molecular target: Transporter, Serotonin (SERT) (Homo sapiens, UniProt P31645); test: Eurofins radioligand binding
[4] = IV/PO pharmacokinetics (rat); type: in vivo; settings: Rat (SD)
Opiate κ (OP2, KOP) = Opiate κ (OP2, KOP) (Homo sapiens, UniProt P41145); test: Eurofins radioligand binding
Rolipram = test: Eurofins radioligand binding; settings: Rat
[5] = plasma protein binding, equilibrium dialysis (cyno); type: in vitro ADME; settings: cynomolgus monkey, pH 7.4, cyno (c), read-out: fu,plasma
Protocol: Plasma protein binding and Brain homogenate binding: Determination of fraction unbound (f u) in plasma was conducted in vitro via equilibrium dialysis using HTDialysis (HTD) membrane plates. The top half of the plate was filled with 100 uL of Dubelco’s Phosphate Buffered Saline, pH 7.4 (DPBS). Compounds were diluted into plasma from each species (5 µM final concentration), which was aliquoted in triplicate to the ‘bottom half’ of the prepared HTD plate wells. The HTD plate was sealed and incubated for 6 hours at 37 °C. Following incubation, each well (both top and bottom halves) were transferred (20 µL) to the corresponding wells of a 96-shallow-well (V-bottom) plate. […]
The unbound fraction (f u) was calculated following the equation below, and mean values for each species were calculated from 3 replicates.
A similar approach was used to determine the degree of brain homogenate binding, which employed the same methodology and procedure with the following modifications: 1) a final compound concentration of 1 μM was used, 2) naïve rat brains were homogenized in DPBS (1:3 composition of brain: DPBS, w/w) using a Mini-Bead Beater™ machine in order to obtain brain homogenate, which was then treated in the same manner as the plasma samples in the previously described plasma protein binding assay. Fraction unbound for both plasma and brain samples was determined using Equation 4. […]

GABAA, Muscimol, Central = test: Eurofins radioligand binding; settings: Rat
Sigma σ1 = Sigma σ1 (Homo sapiens, UniProt Q99720); test: Eurofins radioligand binding
3A4 [6] = test: CYP450 induction in human hepatocytes (three donors); type: cell-based
[7] = molecular target: Platelet Activating Factor (PAF) (Homo sapiens, UniProt P25105); test: Eurofins radioligand binding
[8] = molecular target: Nicotinic Acetylcholine α3β4 (Homo sapiens, UniProt P30926+P32297); test: Eurofins radioligand binding
[9] = rat oral dose escalation PK study; type: in vivo; settings: for AUC(0-t) / Cmax / AUC / Tmax: Sprague-Dawley, plasma; for Cmax / AUC / Tmax: rat, po
Protocol: Pharmacokinetic profiles in rats following oral single escalating doses Single escalating oral dosing in Sprague-Dawley rats was performed at Frontage Laboratories according to their non-GLP Standard Operating Procedure and IACUC protocols. In short, […]
arterial blood was collected from a femoral artery catheter, and compound concentration was determined in plasma by LC-MS/MS following their non-GLP protocol. PK parameters were determined using Phoenix WinNonlin software (version 6.3). […]

3A4 [10] = molecular target: 3A4 (Homo sapiens, UniProt P08684); test: CYP450 phenotyping, recombinant enzymes; type: in vitro ADME; settings: 3A4, panel of eight recombinant enzymes
3A5 = 3A5 (Homo sapiens, UniProt P20815); test: CYP450 phenotyping, recombinant enzymes; type: in vitro ADME; settings: 3A5, panel of eight recombinant enzymes
multispecies PK, summary = type: in vivo; settings: rat, dog, NHP, plasma, across nonclinical species
2B6 = test: CYP450 induction in human hepatocytes (three donors); type: cell-based; settings: 10 μM, human hepatocytes from three donors
Glutamate, Kainate = test: Eurofins radioligand binding; settings: Rat
Opiate δ1 (OP1, DOP) = Opiate δ1 (OP1, DOP) (Homo sapiens, UniProt P41143); test: Eurofins radioligand binding
[11] = 10 mg/kg, rat PO 10 mpk, 10% Tween
[12] = 10 mg/kg, rat PO 10 mpk, 100% PEG
[13] = 30 mg/kg, rat PO 30 mpk, 10% Tween
[14] = 30 mg/kg, rat PO 30 mpk, 100% PEG
[15] = 100 mg/kg, rat PO 100 mpk, 10% Tween
[16] = 100 mg/kg, rat PO 100 mpk, 100% PEG

Sequence of 3A5 (P20815 whole entry): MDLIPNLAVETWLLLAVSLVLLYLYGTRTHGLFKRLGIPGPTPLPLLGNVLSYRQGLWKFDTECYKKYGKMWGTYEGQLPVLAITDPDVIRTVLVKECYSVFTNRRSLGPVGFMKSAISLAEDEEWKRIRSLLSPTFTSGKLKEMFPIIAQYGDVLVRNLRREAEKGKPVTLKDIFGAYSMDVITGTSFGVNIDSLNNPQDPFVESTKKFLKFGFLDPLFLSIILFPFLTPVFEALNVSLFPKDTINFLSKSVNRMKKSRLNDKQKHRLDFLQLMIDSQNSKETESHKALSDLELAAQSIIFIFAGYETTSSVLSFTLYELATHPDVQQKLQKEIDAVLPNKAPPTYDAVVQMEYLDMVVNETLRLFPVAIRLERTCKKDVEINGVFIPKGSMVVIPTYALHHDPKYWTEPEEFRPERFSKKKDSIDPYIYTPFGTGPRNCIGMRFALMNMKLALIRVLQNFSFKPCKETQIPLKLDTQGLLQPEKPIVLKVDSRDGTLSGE
Sequence of 3A4 (Homo sapiens, UniProt P08684) (P08684 whole entry): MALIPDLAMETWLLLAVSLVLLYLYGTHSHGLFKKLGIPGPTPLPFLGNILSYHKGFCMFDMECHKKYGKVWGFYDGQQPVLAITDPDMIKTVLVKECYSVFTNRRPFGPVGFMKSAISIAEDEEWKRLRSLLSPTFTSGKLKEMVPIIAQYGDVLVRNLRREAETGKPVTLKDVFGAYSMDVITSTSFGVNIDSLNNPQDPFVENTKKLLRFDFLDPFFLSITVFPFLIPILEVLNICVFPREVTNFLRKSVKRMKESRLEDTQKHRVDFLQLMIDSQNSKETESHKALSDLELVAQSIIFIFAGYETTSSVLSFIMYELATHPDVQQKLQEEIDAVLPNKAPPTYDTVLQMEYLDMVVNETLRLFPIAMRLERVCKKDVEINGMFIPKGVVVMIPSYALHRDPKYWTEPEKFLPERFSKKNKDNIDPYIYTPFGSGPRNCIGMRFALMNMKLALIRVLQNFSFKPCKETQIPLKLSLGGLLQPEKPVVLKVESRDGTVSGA
Sequence of Opiate δ1 (OP1, DOP) (P41143 whole entry): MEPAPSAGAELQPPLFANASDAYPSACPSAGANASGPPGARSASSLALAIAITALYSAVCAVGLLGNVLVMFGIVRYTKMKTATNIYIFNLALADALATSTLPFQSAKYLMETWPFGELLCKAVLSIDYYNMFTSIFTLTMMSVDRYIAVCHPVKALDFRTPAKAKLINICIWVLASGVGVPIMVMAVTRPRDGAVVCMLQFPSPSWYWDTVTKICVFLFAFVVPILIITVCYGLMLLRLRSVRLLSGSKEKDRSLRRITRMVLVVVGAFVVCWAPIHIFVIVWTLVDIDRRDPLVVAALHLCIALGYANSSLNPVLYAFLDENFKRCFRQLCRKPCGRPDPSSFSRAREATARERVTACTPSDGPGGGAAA
Sequence of Calcium Channel N-Type (Q02294 whole entry): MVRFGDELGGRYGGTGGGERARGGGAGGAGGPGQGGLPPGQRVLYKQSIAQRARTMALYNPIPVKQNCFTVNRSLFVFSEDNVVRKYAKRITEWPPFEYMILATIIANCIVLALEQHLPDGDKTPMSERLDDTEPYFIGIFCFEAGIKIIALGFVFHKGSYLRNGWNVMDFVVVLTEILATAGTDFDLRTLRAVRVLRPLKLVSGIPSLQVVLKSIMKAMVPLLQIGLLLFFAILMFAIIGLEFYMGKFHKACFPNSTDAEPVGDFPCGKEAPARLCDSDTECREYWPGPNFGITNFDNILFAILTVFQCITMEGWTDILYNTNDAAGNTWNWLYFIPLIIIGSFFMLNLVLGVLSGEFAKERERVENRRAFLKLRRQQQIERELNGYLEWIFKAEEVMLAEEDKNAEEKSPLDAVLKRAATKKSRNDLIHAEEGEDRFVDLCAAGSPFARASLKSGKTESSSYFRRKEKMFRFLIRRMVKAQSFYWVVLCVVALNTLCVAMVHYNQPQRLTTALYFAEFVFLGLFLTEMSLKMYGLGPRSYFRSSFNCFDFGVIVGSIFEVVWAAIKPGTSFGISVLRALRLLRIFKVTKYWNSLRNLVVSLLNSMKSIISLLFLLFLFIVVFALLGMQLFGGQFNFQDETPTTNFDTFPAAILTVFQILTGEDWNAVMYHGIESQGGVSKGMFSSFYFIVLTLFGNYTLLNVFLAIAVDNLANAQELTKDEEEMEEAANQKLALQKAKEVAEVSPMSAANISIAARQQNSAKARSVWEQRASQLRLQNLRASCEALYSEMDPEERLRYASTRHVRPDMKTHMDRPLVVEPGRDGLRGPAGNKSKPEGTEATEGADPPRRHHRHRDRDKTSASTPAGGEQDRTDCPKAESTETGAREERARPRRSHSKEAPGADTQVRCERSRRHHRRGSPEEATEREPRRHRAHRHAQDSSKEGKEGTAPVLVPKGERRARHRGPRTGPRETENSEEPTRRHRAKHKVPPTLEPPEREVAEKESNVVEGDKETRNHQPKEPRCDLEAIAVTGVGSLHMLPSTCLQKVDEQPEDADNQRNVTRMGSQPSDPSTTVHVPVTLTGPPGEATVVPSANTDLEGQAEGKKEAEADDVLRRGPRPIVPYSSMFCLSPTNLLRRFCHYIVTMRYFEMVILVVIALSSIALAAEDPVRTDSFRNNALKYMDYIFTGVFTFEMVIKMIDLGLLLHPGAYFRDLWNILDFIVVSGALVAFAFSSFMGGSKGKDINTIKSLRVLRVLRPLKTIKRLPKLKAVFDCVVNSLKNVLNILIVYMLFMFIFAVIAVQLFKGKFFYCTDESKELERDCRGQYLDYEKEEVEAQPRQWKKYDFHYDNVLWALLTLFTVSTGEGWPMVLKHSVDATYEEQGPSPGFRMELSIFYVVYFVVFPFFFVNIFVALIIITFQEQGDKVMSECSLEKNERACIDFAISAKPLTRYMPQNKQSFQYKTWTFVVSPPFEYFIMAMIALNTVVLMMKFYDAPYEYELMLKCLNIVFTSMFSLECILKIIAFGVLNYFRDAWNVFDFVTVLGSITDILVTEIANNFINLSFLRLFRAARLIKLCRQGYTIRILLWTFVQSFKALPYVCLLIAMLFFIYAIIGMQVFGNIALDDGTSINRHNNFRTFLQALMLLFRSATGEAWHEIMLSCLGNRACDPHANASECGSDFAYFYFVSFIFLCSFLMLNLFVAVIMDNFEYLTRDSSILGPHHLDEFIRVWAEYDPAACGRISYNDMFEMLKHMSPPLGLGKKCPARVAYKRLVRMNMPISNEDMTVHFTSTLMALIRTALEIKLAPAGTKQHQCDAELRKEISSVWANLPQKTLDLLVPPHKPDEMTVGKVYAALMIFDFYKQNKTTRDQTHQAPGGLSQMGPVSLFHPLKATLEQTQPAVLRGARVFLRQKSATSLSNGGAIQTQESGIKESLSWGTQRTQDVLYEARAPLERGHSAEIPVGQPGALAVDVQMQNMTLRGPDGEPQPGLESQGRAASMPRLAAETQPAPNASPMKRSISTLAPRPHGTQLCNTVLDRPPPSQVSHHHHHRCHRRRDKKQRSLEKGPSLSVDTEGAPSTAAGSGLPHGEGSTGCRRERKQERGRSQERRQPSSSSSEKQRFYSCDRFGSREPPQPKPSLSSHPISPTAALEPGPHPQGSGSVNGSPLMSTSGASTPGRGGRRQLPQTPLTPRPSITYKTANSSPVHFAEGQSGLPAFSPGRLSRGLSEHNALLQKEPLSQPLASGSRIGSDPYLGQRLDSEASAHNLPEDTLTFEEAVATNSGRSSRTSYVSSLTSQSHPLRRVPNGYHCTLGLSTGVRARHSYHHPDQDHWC
Sequence of Sigma σ1 (Q99720 whole entry): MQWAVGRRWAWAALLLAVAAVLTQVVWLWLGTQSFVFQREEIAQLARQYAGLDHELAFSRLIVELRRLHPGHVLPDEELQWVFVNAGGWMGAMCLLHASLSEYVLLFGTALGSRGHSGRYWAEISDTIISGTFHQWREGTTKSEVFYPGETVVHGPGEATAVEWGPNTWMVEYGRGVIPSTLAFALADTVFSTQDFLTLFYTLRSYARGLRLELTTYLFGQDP
Sequence of Opiate κ (OP2, KOP) (P41145 whole entry): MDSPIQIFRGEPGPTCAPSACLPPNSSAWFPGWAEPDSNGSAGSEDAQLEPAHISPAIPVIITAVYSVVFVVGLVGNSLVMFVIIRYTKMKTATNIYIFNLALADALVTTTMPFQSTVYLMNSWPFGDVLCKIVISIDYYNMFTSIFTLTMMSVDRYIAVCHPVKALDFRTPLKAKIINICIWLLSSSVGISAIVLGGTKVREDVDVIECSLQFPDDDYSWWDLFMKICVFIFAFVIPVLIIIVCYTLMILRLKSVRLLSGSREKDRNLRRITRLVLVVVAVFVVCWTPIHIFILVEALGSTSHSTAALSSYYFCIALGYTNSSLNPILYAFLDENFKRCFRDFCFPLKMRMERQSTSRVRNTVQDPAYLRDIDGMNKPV
Sequence of Transporter, Serotonin (SERT) (P31645 whole entry): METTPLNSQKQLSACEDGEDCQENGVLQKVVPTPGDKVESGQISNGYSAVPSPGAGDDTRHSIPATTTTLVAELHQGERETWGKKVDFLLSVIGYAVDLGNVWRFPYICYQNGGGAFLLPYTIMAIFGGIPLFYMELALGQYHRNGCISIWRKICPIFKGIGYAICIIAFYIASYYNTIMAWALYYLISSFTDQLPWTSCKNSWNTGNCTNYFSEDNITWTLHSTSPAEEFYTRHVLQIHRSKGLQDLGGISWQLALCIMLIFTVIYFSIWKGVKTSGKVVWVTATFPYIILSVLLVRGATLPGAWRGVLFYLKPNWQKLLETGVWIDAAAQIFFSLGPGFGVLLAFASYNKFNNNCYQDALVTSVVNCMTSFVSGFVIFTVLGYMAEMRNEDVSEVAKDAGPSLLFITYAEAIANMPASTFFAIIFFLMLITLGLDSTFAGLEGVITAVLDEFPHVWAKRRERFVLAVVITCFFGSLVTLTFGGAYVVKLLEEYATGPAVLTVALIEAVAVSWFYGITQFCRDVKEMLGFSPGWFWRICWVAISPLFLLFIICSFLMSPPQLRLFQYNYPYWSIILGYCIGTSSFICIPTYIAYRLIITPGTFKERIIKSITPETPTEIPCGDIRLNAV

For `Cn1cc2c(-c3cc(F)c(CN4Cc5ncccc5C4=O)c(F)c3)ccc(C(C)(C)O)c2n1` [compound 7], the “% Inhibition at 10 µM” value [1] was 21%, the total brain exposure ([2]; 56.6 mg/kg IP) was 29.8 µM and the total brain exposure ([2]; 100 mg/kg IP) was 42.2 µM. For the same compound, the inhibition at 10 µM (Calcium Channel N-Type) was -11%, the inhibition at 10 µM [3] was -1% and the “F (%) po” value ([4]; 10 mg/kg po, 10 mg/kg) was >100%. For the same compound, the clearance ([4]; Sprague-Dawley, plasma, 1 mg/kg iv, read-out: CLp) was 5.8 mL/min/kg, the half-life ([4]; Sprague-Dawley, plasma, 1 mg/kg iv, read-out: Elimination t1/2 (converted)) was 3.7 h and the Vd ([4]; Sprague-Dawley, plasma, 1 mg/kg iv, read-out: Vss) was 1.3 L/kg. The AUC ([4]; Sprague-Dawley, plasma, 10 mg/kg po) was 110 µM·h, the Cmax ([4]; plasma, 10 mg/kg po) was 15.9 µM and the Tmax ([4]; plasma, 10 mg/kg po) was 1 h. The inhibition at 10 µM (Opiate κ (OP2, KOP)) was 15%, the “% Inhibition at 10 µM” value (Rolipram) was 61% and the fraction unbound at 6 h, 5 µM [5] was 0.06. For the same compound, the “% Inhibition at 10 µM” value (GABAA, Muscimol, Central) was -10%, the inhibition at 10 µM (Sigma σ1) was 6% and the 3A4 induction (3A4 [6]; 10 μM, human hepatocytes from three donors) was 7.6%. The 3A4 induction (3A4 [6]; 30 μM, mRNA as the reporter) was 30.5%, the inhibition at 10 µM [7] was 1% and the inhibition at 10 µM [8] was 4%. For the same compound, the AUC(0-t) ([9]; rat PO 10 mg/kg, 10% aqueous Tween 80 suspension) was 23800 ng·h/mL, the AUC(0-t) ([9]; rat PO 30 mg/kg, 10% aqueous Tween 80 suspension) was 66500 ng·h/mL and the AUC(0-t) ([9]; rat PO 100 mg/kg, 10% aqueous Tween 80 suspension) was 96200 ng·h/mL. The Cmax ([9]; 10 mg/kg, rat PO 10 mg/kg, 10% aqueous Tween 80 suspension) was 2340 ng/mL, the AUC [9, 11] was 23800 ng·h/mL and the Tmax [9, 11] was 2.17 h. It also gave an AUC [9, 12] of 20600 ng·h/mL, a Cmax [9, 12] of 2390 ng/mL and a Tmax [9, 12] of 3.33 h. It also gave a Cmax ([9]; 30 mg/kg, rat PO 30 mg/kg, 10% aqueous Tween 80 suspension) of 7640 ng/mL, an AUC [9, 13] of 66700 ng·h/mL and a Tmax [9, 13] of 2.67 h. It also gave an AUC [9, 14] of 115000 ng·h/mL, a Cmax [9, 14] of 12200 ng/mL and a Tmax [9, 14] of 4 h. The Cmax ([9]; 100 mg/kg, rat PO 100 mg/kg, 10% aqueous Tween 80 suspension) was 10900 ng/mL, the AUC [9, 15] was 96800 ng·h/mL and the Tmax [9, 15] was 4 h. For the same compound, the AUC [9, 16] was 316000 ng·h/mL, the Cmax [9, 16] was 24700 ng/mL and the Tmax [9, 16] was 4 h. The “cholinergic signs or adverse events in rat dose escalation” value ([9]; result in words) was “no cholinergic signs or adverse events were noted in rats”, the “contribution to metabolism, CYP450 phenotyping” value (3A4 [10]) was 96.8% and the “contribution to metabolism, CYP450 phenotyping” value (3A5) was 3.2%. For the same compound, the bioavailability (multispecies PK, summary; read-out: %F, multispecies) was > 65%, the clearance (multispecies PK, summary; read-out: Clp s, multispecies) was < 10 mL/min/kg and the 2B6 induction (2B6) was 11.5%. For the same compound, the “% Inhibition at 10 µM” value (Glutamate, Kainate) was -2% and the inhibition at 10 µM (Opiate δ1 (OP1, DOP)) was -2%.
